In ChEMBL document CHEMBL5465560, “Selectivity Literature for EUbOPEN Chemogenomic Library” (2024):

How the values were obtained:
[1] = molecular target: Vascular endothelial growth factor receptor 1 (Homo sapiens) (UniProt P17948); test: Selectivity interaction (KinomeScan (DiscoverX)) EUB0000618a FLT1; details: at 10 µM
[2] = molecular target: Mitogen-activated protein kinase kinase kinase kinase 1 (Homo sapiens) (UniProt Q92918); test: Selectivity interaction (KinomeScan (DiscoverX)) EUB0000607a MAP4K1; details: at 10 µM
[3] = molecular target: Hepatocyte growth factor-like protein (Homo sapiens) (UniProt P26927); test: Selectivity interaction (KinomeScan (DiscoverX)) EUB0000607a MST1; details: at 10 µM
[4] = molecular target: Serine/threonine-protein kinase SBK1 (Homo sapiens) (UniProt Q52WX2); test: Selectivity interaction (KinomeScan (DiscoverX)) EUB0000045b SBK1
Sequence of Serine/threonine-protein kinase SBK1 (Homo sapiens) (Q52WX2 whole entry): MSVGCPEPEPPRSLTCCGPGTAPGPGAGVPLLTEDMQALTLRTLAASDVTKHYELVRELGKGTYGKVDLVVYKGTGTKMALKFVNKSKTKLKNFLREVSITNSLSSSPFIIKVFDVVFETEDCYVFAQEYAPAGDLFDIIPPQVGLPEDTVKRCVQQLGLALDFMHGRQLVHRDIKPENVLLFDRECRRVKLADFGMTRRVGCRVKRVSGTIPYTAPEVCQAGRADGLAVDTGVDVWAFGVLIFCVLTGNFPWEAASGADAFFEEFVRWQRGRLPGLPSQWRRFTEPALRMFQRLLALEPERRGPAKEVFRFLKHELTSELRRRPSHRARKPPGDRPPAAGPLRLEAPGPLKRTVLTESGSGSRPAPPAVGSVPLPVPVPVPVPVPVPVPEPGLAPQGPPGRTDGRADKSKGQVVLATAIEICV

[5] = molecular target: Cyclin-dependent kinase 7 (Homo sapiens, UniProt P50613); test: Selectivity interaction (KinomeScan (DiscoverX)) EUB0000595a CDK7; details: at 10 µM
Sequence of Cyclin-dependent kinase 7 (P50613 whole entry): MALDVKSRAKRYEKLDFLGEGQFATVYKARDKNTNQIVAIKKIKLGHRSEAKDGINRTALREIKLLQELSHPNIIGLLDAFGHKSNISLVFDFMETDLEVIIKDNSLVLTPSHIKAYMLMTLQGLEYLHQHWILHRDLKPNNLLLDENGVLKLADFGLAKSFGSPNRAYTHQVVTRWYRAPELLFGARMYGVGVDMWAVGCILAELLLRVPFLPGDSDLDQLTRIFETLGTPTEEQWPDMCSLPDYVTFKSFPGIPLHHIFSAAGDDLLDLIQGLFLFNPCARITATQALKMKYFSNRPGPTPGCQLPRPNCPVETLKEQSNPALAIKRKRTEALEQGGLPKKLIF

[6] = molecular target: T1, Serine/threonine-protein kinase RIO1 (Homo sapiens) (UniProt Q9BRS2); test: Selectivity interaction (KinomeScan (DiscoverX)) EUB0000229b RIOK1; details: at 10 µM
T1 sequence (whole entry): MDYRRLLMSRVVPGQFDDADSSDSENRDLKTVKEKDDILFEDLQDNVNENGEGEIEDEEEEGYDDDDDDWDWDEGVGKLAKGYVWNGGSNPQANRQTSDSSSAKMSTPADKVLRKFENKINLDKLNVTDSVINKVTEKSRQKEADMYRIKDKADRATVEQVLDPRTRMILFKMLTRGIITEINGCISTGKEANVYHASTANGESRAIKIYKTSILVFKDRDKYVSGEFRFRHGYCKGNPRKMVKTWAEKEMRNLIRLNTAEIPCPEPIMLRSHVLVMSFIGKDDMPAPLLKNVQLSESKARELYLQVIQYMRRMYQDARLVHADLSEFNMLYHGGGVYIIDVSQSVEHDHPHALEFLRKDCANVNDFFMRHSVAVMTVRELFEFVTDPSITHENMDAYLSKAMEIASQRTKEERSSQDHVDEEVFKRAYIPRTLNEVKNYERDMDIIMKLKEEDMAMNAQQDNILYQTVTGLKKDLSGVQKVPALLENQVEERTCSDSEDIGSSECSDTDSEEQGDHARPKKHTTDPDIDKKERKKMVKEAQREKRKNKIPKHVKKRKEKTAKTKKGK

[7] = molecular target: CDC7/DBF4 (Cell division cycle 7-related protein kinase/Activator of S phase kinase) (Homo sapiens) (UniProt Q9UBU7+O00311); test: Selectivity interaction (ProQinase) EUB0000171b CDC7; assay type: protein-complex assay
Sequence of CDC7/DBF4 (Cell division cycle 7-related protein kinase/Activator of S phase kinase) (Homo sapiens) (O00311 whole entry, looked up): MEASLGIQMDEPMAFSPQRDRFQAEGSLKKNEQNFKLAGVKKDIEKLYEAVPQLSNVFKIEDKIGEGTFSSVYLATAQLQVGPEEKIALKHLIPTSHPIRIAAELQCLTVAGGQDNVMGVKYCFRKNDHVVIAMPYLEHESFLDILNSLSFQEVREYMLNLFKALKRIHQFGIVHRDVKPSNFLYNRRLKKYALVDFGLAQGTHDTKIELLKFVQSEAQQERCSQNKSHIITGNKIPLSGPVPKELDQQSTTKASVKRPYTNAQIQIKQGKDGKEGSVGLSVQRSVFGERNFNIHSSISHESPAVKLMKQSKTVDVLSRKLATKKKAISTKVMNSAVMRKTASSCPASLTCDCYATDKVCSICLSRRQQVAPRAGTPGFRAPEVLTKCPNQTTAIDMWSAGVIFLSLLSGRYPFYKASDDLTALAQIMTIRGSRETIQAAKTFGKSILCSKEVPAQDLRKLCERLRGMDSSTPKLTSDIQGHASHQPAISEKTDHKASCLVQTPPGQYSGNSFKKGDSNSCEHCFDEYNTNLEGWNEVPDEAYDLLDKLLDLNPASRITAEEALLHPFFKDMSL
Sequence of CDC7/DBF4 (Cell division cycle 7-related protein kinase/Activator of S phase kinase) (Homo sapiens) (Q9UBU7 whole entry, looked up): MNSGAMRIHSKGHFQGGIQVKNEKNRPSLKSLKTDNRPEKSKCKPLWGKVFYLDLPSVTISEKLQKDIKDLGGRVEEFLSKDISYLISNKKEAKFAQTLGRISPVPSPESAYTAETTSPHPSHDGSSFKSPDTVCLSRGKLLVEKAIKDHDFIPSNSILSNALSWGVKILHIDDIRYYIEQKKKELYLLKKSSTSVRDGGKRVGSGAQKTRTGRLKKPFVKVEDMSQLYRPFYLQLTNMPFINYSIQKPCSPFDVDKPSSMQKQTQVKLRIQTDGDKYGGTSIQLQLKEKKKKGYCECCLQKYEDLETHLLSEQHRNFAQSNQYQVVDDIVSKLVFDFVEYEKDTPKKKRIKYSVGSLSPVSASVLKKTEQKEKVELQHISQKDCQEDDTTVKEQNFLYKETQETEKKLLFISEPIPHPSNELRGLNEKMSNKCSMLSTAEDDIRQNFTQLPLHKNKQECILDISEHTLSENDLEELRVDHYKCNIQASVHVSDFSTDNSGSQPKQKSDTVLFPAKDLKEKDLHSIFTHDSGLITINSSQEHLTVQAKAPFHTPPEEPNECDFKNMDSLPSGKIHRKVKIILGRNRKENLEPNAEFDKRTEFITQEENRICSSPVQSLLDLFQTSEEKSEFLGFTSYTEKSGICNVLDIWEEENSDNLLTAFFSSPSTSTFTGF

Aurora kinase B = Aurora kinase B (Homo sapiens, UniProt Q96GD4); test: Selectivity interaction (KinomeScan (DiscoverX)) EUB0001049a AURKB; details: at 1 µM
Sequence of Aurora kinase B (Q96GD4 whole entry): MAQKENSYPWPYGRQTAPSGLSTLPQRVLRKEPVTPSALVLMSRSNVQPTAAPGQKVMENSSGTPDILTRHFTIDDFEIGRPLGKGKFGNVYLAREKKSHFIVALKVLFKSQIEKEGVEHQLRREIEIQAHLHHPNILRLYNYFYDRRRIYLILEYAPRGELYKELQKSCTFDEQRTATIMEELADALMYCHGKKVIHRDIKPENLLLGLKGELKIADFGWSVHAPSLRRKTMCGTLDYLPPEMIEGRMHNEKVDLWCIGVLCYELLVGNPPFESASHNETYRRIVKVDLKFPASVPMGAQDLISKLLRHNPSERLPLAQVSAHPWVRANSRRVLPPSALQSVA

[8] = molecular target: T2, Serine/threonine-protein kinase Nek9 (Homo sapiens) (UniProt Q8TD19); test: Selectivity interaction (KinomeScan (DiscoverX)) EUB0000666a NEK9; details: at 10 µM
T2 sequence (whole entry): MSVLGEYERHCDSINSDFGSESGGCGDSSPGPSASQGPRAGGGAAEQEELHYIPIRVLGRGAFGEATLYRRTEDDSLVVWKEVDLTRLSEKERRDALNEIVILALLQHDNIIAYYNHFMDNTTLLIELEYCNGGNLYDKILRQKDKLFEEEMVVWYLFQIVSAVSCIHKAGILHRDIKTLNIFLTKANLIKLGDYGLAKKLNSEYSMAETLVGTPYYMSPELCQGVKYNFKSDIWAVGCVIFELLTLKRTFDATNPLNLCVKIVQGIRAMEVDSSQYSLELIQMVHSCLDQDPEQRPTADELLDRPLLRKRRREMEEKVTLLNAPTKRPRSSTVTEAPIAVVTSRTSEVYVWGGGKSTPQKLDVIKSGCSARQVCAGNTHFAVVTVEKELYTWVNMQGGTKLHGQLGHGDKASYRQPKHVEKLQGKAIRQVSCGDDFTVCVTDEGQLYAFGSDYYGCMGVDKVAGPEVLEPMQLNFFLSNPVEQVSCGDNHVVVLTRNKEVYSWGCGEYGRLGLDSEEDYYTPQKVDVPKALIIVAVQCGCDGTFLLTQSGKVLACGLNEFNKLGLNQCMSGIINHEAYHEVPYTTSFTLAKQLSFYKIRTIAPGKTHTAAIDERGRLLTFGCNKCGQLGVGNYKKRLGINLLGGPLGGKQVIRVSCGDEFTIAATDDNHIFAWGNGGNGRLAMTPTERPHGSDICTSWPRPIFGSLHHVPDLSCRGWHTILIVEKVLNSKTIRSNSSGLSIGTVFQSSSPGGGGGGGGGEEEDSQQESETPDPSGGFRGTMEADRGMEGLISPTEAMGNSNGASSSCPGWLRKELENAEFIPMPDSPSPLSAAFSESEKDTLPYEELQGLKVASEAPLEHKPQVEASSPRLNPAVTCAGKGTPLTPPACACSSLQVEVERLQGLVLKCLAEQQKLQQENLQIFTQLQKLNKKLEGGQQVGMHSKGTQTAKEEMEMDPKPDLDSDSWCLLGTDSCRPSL

[9] = system: Tyrosine-protein kinase ABL1 (Homo sapiens), P00519 [F317I]; test: Selectivity interaction (KinomeScan (DiscoverX)) EUB0000092b ABL1; details: at 10 µM
Sequence of Tyrosine-protein kinase ABL1 (Homo sapiens), P00519 [F317I] (P00519 whole entry F317I): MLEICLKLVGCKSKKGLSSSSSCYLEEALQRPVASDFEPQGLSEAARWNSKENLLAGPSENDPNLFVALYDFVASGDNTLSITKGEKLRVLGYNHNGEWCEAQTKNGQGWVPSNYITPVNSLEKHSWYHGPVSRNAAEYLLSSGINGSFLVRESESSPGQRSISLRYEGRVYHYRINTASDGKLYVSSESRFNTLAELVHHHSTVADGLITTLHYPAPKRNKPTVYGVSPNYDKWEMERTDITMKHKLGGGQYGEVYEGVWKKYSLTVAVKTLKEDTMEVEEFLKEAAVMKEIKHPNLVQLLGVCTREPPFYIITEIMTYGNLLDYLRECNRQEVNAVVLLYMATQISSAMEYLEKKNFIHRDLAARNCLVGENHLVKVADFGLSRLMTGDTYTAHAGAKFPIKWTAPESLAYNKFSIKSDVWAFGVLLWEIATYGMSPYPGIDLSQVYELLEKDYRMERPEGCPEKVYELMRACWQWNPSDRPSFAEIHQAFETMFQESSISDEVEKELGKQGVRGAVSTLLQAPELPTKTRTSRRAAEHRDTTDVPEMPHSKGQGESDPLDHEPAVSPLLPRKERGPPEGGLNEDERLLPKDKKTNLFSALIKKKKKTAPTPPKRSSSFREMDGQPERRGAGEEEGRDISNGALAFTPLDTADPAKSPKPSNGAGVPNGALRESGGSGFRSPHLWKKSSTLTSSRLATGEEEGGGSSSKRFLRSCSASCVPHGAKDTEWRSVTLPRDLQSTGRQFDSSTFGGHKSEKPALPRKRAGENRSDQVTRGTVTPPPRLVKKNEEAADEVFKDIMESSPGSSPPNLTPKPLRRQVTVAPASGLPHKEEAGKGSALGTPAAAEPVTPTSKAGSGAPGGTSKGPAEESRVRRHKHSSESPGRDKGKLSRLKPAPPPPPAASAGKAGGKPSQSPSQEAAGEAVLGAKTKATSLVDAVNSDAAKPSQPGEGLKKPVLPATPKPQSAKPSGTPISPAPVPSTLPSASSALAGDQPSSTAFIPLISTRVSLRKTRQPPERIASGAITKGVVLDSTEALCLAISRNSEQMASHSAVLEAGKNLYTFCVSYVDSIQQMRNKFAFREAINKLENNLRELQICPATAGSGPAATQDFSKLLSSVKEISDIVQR

[10] = molecular target: T3, Serine/threonine-protein kinase 3 (Homo sapiens) (UniProt Q13188); test: Selectivity interaction (KinomeScan (DiscoverX)) EUB0000695a STK3; details: at 100 nM
T3 sequence (whole entry): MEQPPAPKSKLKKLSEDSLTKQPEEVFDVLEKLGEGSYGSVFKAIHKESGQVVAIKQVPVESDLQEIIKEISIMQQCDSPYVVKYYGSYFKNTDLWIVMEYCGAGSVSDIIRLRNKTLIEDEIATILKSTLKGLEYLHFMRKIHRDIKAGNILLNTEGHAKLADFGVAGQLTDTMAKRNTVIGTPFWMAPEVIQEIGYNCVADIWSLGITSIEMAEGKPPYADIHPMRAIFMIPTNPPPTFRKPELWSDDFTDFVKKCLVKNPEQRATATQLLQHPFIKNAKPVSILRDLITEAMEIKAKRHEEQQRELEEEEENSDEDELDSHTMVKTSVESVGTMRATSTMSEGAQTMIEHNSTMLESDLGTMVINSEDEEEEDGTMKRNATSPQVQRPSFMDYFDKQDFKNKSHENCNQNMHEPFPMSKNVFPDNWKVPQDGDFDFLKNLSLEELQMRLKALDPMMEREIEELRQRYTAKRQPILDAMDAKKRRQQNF

Sequence of Vascular endothelial growth factor receptor 1 (Homo sapiens) (P17948 whole entry): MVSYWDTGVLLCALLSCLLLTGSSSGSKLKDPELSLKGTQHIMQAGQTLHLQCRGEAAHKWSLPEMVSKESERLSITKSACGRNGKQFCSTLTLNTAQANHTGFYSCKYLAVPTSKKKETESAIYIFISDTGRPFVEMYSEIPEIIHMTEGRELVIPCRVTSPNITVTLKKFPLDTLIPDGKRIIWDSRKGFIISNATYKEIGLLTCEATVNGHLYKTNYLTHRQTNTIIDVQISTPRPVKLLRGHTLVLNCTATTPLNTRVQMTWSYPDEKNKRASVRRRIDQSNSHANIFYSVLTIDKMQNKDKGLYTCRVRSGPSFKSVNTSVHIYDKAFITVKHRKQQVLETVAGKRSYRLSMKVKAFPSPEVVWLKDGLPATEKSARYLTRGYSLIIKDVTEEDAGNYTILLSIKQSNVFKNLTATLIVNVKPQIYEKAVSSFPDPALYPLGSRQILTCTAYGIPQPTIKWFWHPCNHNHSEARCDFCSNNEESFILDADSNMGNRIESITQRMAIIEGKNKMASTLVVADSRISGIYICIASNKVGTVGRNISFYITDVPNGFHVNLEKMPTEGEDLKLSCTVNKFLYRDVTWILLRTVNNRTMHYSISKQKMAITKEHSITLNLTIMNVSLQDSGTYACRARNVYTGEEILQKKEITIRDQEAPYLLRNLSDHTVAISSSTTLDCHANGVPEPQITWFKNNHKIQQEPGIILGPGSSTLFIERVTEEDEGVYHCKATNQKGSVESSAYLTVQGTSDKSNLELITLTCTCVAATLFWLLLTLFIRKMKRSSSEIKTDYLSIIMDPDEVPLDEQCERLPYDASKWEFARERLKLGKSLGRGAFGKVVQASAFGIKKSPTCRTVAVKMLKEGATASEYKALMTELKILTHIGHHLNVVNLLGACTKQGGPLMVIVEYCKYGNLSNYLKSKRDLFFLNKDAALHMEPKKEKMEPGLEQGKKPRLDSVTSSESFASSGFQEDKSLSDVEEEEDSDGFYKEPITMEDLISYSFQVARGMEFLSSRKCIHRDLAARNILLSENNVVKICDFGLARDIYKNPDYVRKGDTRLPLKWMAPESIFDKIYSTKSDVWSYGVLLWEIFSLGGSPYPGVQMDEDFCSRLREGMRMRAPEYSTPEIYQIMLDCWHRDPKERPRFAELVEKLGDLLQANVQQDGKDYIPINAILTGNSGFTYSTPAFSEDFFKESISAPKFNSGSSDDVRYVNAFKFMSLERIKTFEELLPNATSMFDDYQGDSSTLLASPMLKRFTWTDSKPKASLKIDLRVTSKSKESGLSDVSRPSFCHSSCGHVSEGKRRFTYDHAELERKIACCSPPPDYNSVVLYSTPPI

SMILES: O[C@H]1CC[C@H](Nc2ncc3nc(Nc4c(F)cc(F)cc4F)n([C@H]4CCOC4)c3n2)CC1
- % of control [1]: 86%

SMILES: CNC(=O)Nc1ccc(-c2nc(N3CC4CCC(C3)O4)c3cnn(C4CCC5(CC4)OCCO5)c3n2)cc1
- % of control [2]: 94%
- % of control [3]: 100%

SMILES: C=CC(=O)Nc1cc(-n2c(=O)ccc3cnc4ccc(-c5ccc(NS(C)(=O)=O)cc5)cc4c32)ccc1C
- % of control ([4]; at 1 µM): 4.6%
- % of control ([4]; at 10 µM): 100%

SMILES: COCC(=O)NC/C=C/c1ccc2ncnc(Nc3ccc(Oc4ccc(C)nc4)c(C)c3)c2c1 [CP-724714]
- % of control [5]: 100%

SMILES: COc1cc(N(C)c2ccnc3ccc(C(F)(F)F)cc23)cc(OC)c1OC
- % binding [6]: 95%

SMILES: C=CC(=O)Nc1cccc(C(=O)Nc2ccc(Nc3cc(-c4[nH]c(SC)nc4C)ccn3)cc2)c1
- % of control ([7]; at 1 µM): 94%
- % of control ([7]; at 5 µM): 89%

SMILES: COc1cc(Nc2nc(C)cc(-c3cnn4nc(OC)ccc34)n2)cc(C(F)(F)F)c1
- % of control (Aurora kinase B): 85%

SMILES: O=C(NOC[C@H](O)CO)c1ccc(F)c(F)c1Nc1ccc(I)cc1F
- % of control [8]: 82%

SMILES: CCC(=O)N1CCN(c2ccc(-n3c(=O)ccc4cnc5ccc(-c6cnc7ccccc7c6)cc5c43)cc2C(F)(F)F)CC1
- % of control [9]: 100%

SMILES: Cc1cc(F)c(C(=O)Nc2cccc(-c3nncn3C(C)C)n2)cc1-n1cnc(C2CC2)c1
- % of control [10]: 100%
